# Paper PMC7477889 (SLAS discovery : advancing life sciences R & D, 2020)
# Entries after “also recorded” stand apart in the source; their conditions may differ. Like-named read-outs stand apart in the source and are kept apart here.
# What was measured:
# [1] = biological target: T1, GFP-ARER (chimeric androgen receptor with ERα DBD) (Homo sapiens, UniProt P10275, A574V/A587S/A588I/A597P/A623V/C570Y/D601Q/DEL544-554/E566Y/E589Q/F607N/G564N/G578E/I562V/K558R/K591H/K593D/L561A/L575W/L595M/L627K/N611S/P555K/P556E/P613Q/Q557T/Q592N/R599T/S579G/S598A/S614A/T542S/T559Y/T576S/T626M/V582A); assay: GFP-ARER:PRL-HeLa high content analysis assay; format: cell-based
# T1 sequence (P10275 with tags, fused parts or gaps T542S/DEL544-554/P555K/P556E/Q557T/K558R/T559Y/L561A/I562V/G564N/E566Y/C570Y/A574V/L575W/T576S/G578E/S579G/V582A/A587S/A588I/E589Q/K591H/Q592N/K593D/L595M/A597P/S598A/R599T/D601Q/F607N/N611S/P613Q/S614A/A623V/T626M/L627K): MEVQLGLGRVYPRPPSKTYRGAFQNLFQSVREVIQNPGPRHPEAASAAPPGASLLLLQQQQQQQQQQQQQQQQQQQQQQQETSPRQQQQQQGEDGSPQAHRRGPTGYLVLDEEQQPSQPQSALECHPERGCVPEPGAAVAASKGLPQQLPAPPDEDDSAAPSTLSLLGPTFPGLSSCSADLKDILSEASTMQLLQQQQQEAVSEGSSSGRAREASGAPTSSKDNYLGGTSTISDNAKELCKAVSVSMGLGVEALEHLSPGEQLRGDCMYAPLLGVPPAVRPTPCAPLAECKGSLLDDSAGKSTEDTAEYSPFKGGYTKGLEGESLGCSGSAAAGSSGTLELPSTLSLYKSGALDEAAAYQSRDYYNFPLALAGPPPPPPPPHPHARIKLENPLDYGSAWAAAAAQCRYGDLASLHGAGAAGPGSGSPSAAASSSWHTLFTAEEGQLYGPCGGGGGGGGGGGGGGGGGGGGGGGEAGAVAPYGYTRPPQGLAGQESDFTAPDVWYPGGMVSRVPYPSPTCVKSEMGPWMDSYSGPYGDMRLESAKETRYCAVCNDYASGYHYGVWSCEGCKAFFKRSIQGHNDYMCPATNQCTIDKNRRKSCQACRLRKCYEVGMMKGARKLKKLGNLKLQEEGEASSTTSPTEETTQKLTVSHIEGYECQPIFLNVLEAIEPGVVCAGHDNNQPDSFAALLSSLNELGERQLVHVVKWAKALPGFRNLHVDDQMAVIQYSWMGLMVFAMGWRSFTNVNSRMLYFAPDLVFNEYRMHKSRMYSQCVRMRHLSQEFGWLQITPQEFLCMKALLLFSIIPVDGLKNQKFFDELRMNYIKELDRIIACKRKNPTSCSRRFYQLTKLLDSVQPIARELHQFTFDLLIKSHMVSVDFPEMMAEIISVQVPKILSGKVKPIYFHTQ
# [2] = test system: GFP-PRER (chimeric progesterone receptor with ERα DBD); conditions: result in words; cited from earlier work
# GFP-AR = conditions: read-out: Nuclear Translocation EC50, cited from earlier work
# [3] = AUC normalized to vehicle and DHT controls, result in words
# [4] = GFP-ARER:PRL-HeLa, 2 hours, result in words
smiles,measurement,setting,value
"CC12CC1(C)C(=O)N(c1cc(Cl)cc(Cl)c1)C2=O (stereo not shown) [promycidone, procymidone]",nuclear translocation AUC score (k-means Cluster 3),[1]; [3],stronger AUC scores
same,GFP-ARER nuclear translocation,[1]; [4],strongest responders
Cc1cc(C(C)(C)c2cc(C)c(O)c(C)c2)cc(C)c1O [tetramethyl-bisphenol A],nuclear translocation response,"[1]; supplemented ATSDR chemicals and mixtures, 0.1 nM to 10 μM (chemicals), 200-fold to 200,000-fold dilution (mixtures), 2 hours",10-12 % of DHT response
CN(C)c1ccc([C@H]2C[C@]3(C)[C@@H](CC[C@]3(O)CCCO)[C@@H]3CCC4=CC(=O)CCC4=C32)cc1 [ZK98299],visible chromatin binding in the GFP-PRER:PRL-HeLa cell model,[2],does not
"C[C@]12CCC(=O)C[C@@H]1CC[C@@H]1[C@@H]2CC[C@]2(C)[C@@H](O)CC[C@@H]12 [DHT, 5α-dihydrotestosterone]",EC50,GFP-AR; GFP-AR:HeLa,11 ± 2 nM
CC(C)(O)C(=O)Nc1ccc([N+](=O)[O-])c(C(F)(F)F)c1 [hydroxyflutamide],GFP-ARER nuclear translocation,[1],strongest responders; also recorded: induced GFP-ARER nuclear translocation
same,nuclear translocation AUC score (k-means Cluster 3),[1],stronger AUC scores
same,visible chromatin binding (PRL array spot) by GFP-ARER,[1],undetectable evidence of chromatin binding
CC#C[C@]1(O)CC[C@H]2[C@@H]3CCC4=CC(=O)CCC4=C3[C@@H](c3ccc(N(C)C)cc3)C[C@@]21C [RU486],visible chromatin binding in the GFP-PRER:PRL-HeLa cell model,[2],induces visible chromatin binding
C[C@]12CC[C@@H]3c4ccc(O)cc4CC[C@H]3[C@@H]1CCC2=O [estrone],"AUC score for nuclear translocation, chromatin binding, and receptor stabilization (k-means cluster)",[1]; [3],low/moderate AUC score
same,GFP-ARER nuclear translocation,[1]; [4],strongest responders
same,visible chromatin binding (PRL array spot) by GFP-ARER,[1]; [4],induce a visible spot indicating chromatin binding
